Data on ten molecules can be found in patent US20180022734A1 (Sound Biopharmaceuticals Ltd., priority 2015, published 2018).

Data set [1] can be described thus: in vivo. More on the design: AUCiv: unit not given beside the values. The conditions noted are these: mouse, in vivo. The source says: Relative Exposure(RE)=AUCi sample/AUCi control
AUCi—area under curve for the i^th organ or tissue; RE>1 indicates targeting at the organ or tissue, with larger RE indicating greater targeting; RE≦1 indicates non-targeting.
RTE refers to the multiple of the percent of drug content in a tissue of sample group with respect to total drug amount in the body vs. that in a control group. Positive RTE values indicate enhanced targeting effects and the more positive the more the multiple of enhancement and the more the enhanced targeting. In contrast, negative RTE values indicate reduced targeting effects. Value 0 indicate no influence to the tissue.
0.083 h, 0.25 h, 0.5 h, 1 h, 3 h, 8 h post injection, blood was taken by eyeball removal and the mice were sacrificed by cervical dislocation. Tissues were perfused with normal saline and livers and kidneys were removed and cleaned with normal saline. The blood samples were centrifuged to obtain supernatants and stored at −20° C. 50 μL plasma sample and 50 μL internal standard (clozapine) working solution was vortexed with 300 μL MeOH and then centrifuged. 150 μL upper organic phase was obtained and mixed with 150 μL water, followed by centrifugation. 10 μL supernatant was sampled for analysis. The tissue samples were weighted and mixed homogeneously with 10 times weight of water. Since the samples were 10-time diluted, the concentration of the tissue would be 10 times the results determined. The heart tissue was 5-time diluted. 100 μL homogenate was mixed with 50 μL internal standard (clozapine) working solution and 300 μL MeOH and then centrifuged. 150 μL upper organic phase was obtained and mixed with 150 μL water, followed by centrifugation. 10 μL supernatant was sampled for analysis.

Data set [2] in a line: in vivo. In kind it is in vivo. Also noted: AUCpo: unit not given beside the values. The conditions noted are these: mouse, in vivo. The source says: Animal experiments: 24 mice in each group were divided into 8 sub-groups.
Data set [3] is described as follows: Stability of compounds 1 and 2 in MeOH stock solution and with biomass. It is filed as physicochemical. The source says:
No prodrug was detected in organs except for spleen during processing. […] The prodrugs may be converted to Sunitinib or other metabolite during processing or in vivo.

In data set [4] the test system is A549; NCI-H460; 786-O; Caki-1; HT-29; MCF-7. The data set is described as follows: 72 hour cytotoxicity (CCK8) in different cell lines. In kind it is cell-based, human. The source says:
A549 human non-small cell lung cancer cell line, NCI-H460 human non-small cell lung cancer cell line, 786-O human renal cell line, Caki-1 human renal cell line, HT-29 human colon cancer cell line, MDA-MB-231 human breast cancer cell line, and MCF-7 human breast cancer cell line was purchased from Chinese Academy of Science Shanghai Branch. PLC/PRF-5 human hepatoma cell line and Hepal-6 mouse hepatoma cell line were obtained from Institute of Biochemistry and Cell Biology, SIBS, CAS (SIBCB). Cell lines A549, Caki-1, HT-29, MDA-MB-231, MCF-7, PLC/PRF-5 and Hepal-6 were cultured in DMEM medium (Gibco, Life Technologies, China) and cell lines NCI-H460 and 786-O were cultured in RPMI-1640 medium (Gibco, Life Technologies, China). 10% HI fetal bovine serum was purchased from Gibco, Life Technologies, USA and 1% penicillin/streptomycin was obtained from Hyclone.
Approx. 2,000 cells in 50 μL complete medium were plated on each well of a 96-well plate and incubated at 37° C., 5% CO2 overnight. Drugs at concentrations of 0.02 to 10 μM were dissolved in 0.1% DMSO, followed by addition into each well. After incubation for 72 hours, 10 μL CCK8 (Dojindo) was added into each well, followed by incubation at 37° C. for another 4 hours. The OD values were obtained by TECAN Microplate Reader at 450 nm.
(§1) For in vitro tests, compounds were directly dissolved in 10 mM DMSO and stored at −20° C. For in vivo tests, the compounds were dissolved in DMSO and neutralized by Tween 80 (DMSO:Tween=1:1) and further neutralized by PBS (pH 7.4). The final concentrations of DMSO and Tween-80 were 5%.

Another data set deals with 786-O cell or A549 cell. The data set is described as follows: Cell morphology and survival rate after 4 to 8 hours incubation. In kind it is cell-based, human. The conditions noted are these: for cell survival: 786-O cell or A549 cell, incubated for 8 hours; for cell morphology: cancer cells incubated for 4 hours.
The subject of a further data set is cancer cell xenograft. Briefly: Pharmacodynamic tests on mice xenograft transplantation model. It is filed as in vivo. As to conditions: intraperitoneally injected 1.5, 7.5, 30 mg/kg once a day for 2 weeks. How it is done: as §1
5×10^6 cancer cells were subcutaneously injected to the right side of mouse. Drug was intraperitoneally injected at dosages of 1.5 mg/kg, 7.5 mg/kg, 30 mg/kg to the mice, once a day, for 2 weeks when average tumor size reached 75 to 150 mm^3. The size of the tumor was measured every other day. […] Compound 1 had less efficacy.
We then performed the test through oral route. 5×10^6 cancer cells were subcutaneously injected to the right side of mouse. Drug was orally administered at dosages of 5 mg/kg, 15 mg/kg, 45 mg/kg to the mice, once a day, for 2 weeks when average tumor size reached 75 to 150 mm^3. The size of the tumor was measured every other day.

Data set [5] deals with A549 human non-small cell lung cancer cell line. Briefly: 72-hour (long term) cell killing effects. In kind it is cell-based. As to conditions: CCK8. As for the experimental part: Cell lines and Culture: Cell line A549 was cultured in DMEM medium (Gibco, Life Technologies, China). 10% HI fetal bovine serum was purchased from Gibco, Life Technologies, USA and 1% penicillin/streptomycin was obtained from Hyclone.
Approx. 2,000 cells in 50 μL complete medium were plated on each well of a 96-well plate and incubated at 37° C., 5% CO2 overnight. Drugs at concentrations of 0.02 μM to 10 μM were dissolved in 0.1% DMSO, followed by addition into each well. After incubation for 72 hours, 10 μL CCK8 (Dojindo) was added into each well, followed by incubation at 37° C. for another 4 hours. The OD values were obtained by TECAN Microplate Reader at 450 nm.
Processing of Compounds: For in vitro tests, compounds were directly dissolved in 10 mM DMSO and stored at −20° C.

For the next data set, the system named is pSTAT3. Briefly: Effects on STAT3 phosphorylation in A549 cell line. It is filed as cell-based, human. The conditions noted are these: 10 μM. As for the experimental part:
as §1

Data set [6] in a line: Acute toxicity test: maximum tolerance dosage (MTD) determination. It is filed as in vivo, BALB/c mice. As for the experimental part:
Methods: Femal BALB/c mice, 4-5 weeks old, weighted greater than 17 g, were used for the test. […] The body weights and conditions of the mice were recorded.
In contrast, the body weights of mice in compound 2 group increased 6.0% in average.
To further explore the toxicity of the compounds, blood was collected after 14-day treatment of drugs and critical biochemical index were analyzed.

The mark [7] stands for this setting: blood after 14-day treatment, 200 mg/kg.
Setting [8] is: oral once a day for 14 days, 175 mg/kg.
The mark [9] stands for this setting: repeated test, oral once a day, 200 mg/kg.

Where two headings read alike, the source gives them in different places.

Take `CCN(CC)CCNC(=O)c1c(C)[nH]c(C=C2C(=O)N(CC(=O)OC(C)(C)C)c3ccc(F)cc32)c1C` [Compound 1, N-[2-(diethylamino)ethyl]-5-[(5-fluoro-2-oxo-1-(t-butylcarboxymethyl)-2,3-indolin-3-ylmethylene)]-2,4-dimethyl-1H-pyrrolidine-3-carboxamide]: in “in vivo [1]” (iv), the AUCiv turned out to be 478.9; the Cl was 267.5 mL/h; the “Cmax, times than that of the control” value is “approx. 5 times”; the “RTE analysis: distribution proportions in organs” value is “increased distribution proportions in liver and spleen”. Further, the Tmax (commonly the time at which the peak concentration occurs) in “in vivo [1]” (iv) stood at 4.8 min. In addition, in “in vivo [2]” (po), the AUCpo was found to be 946.2, the Cl came out at 3848.9 mL/h, the Tmax stood at 30 min and the t1/2 worked out at 176 min. Besides, the “stability in the event of coexisting with biomass” value in [3] was “easy to degrade”. In addition, in data set [4] (72 hours, CCK8, FIG. 5a-f), the “IC50 values among several cell lines” value was “comparable” and the “tumor killing effects / cytotoxicity” value is “relatively strong tumor killing effects”. For the same molecule, in the data set on 786-O cell or A549 cell, the cell survival entry is reported as “mass cell death”; the cell morphology result is “changed to round and suffered from stress”. Also, in the data set with cancer cell xenograft, the “efficacy on tumor size” value is reported as “less efficacy”.
With `CCN(CC)CCNC(=O)c1c(C)[nH]c(/C=C2\C(=O)N(COC(=O)N(C)C)c3ccc(F)cc32)c1C` [Compound 6, N-[2-(diethylamino)ethyl]-5-[(5-fluoro-2-oxo-1-(N,N-dimethylaminocarboxymethyl)-2,3-indolin-3-ylmethylene)]-2,4-dimethyl-1H-pyrrolidine-3-carboxamide], in [5], half-maximal inhibition (IC50) was put at 8.46 µM.
For `CCN(CC)CCNC(=O)c1c(C)[nH]c(/C=C2\C(=O)N(COC(=O)OC(C)(C)C)c3ccc(F)cc32)c1C` [Compound 7, N-[2-(diethylamino)ethyl]-5-[(5-fluoro-2-oxo-1-(t-butoxycarboxymethyl)-2,3-indolin-3-ylmethylene)]-2,4-dimethyl-1H-pyrrolidine-3-carboxamide], in data set [5], the IC50 (as a rule, the midpoint of a concentration-inhibition curve) amounted to 1.79 µM.
On the same count and under the same terms, then `CCOC(=O)OCN1C(=O)/C(=C\c2[nH]c(C)c(C(=O)NCCN(CC)CC)c2C)c2cc(F)ccc21` [Compound 8], with 1.11 µM; and `CCN(CC)CCNC(=O)c1c(C)[nH]c(/C=C2\C(=O)N(COC(=O)C3CCCCC3)c3ccc(F)cc32)c1C` [Compound 9, N-[2-(diethylamino)ethyl]-5-[(5-fluoro-2-oxo-1-(cyclohexylcarboxymethyl)-2,3-indolin-3-ylmethylene)]-2,4-dimethyl-1H-pyrrolidine-3-carboxamide], with 4 µM; and `CCN(CC)CCNC(=O)c1c(C)[nH]c(/C=C2\C(=O)N(COC(C)=O)c3ccc(F)cc32)c1C` [Compound 10], with 7.46 µM.
On the same count and under the same terms, in the case of `CCN(CC)CCNC(=O)c1c(C)[nH]c(/C=C2\C(=O)N(COC(=O)C3CC3)c3ccc(F)cc32)c1C` [Compound 11] it was 2.56 µM.
The molecule `CCN(CC)CCNC(=O)c1c(C)[nH]c(/C=C2\C(=O)N(COC(=O)C(C)C)c3ccc(F)cc32)c1C` [Compound 12, N-[2-(diethylamino)ethyl]-5-[(5-fluoro-2-oxo-1-(isopropylcarboxymethyl)-2,3-indolin-3-ylmethylene)]-2,4-dimethyl-1H-pyrrolidine-3-carboxamide] gave an IC50 in [5] of 9.07 µM.
In data set [5], `CCN(CC)CCNC(=O)c1c(C)[nH]c(/C=C2\C(=O)N(COC(=O)c3ccc(OC)cc3)c3ccc(F)cc32)c1C` [Compound 13, N-[2-(diethylamino)ethyl]-5-[(5-fluoro-2-oxo-1-(p-methoxyphenylcarboxymethyl)-2,3-indolin-3-ylmethylene)]-2,4-dimethyl-1H-pyrrolidine-3-carboxamide] had an IC50 of 3 µM.
Consider `CCN(CC)CCNC(=O)c1c(C)[nH]c(/C=C2\C(=O)Nc3ccc(F)cc32)c1C.O=C(O)C[C@H](O)C(=O)O` [Sunitinib, reference compound], for which, in “in vivo [1]” (5.14 mg/kg), the half-life (usually the time needed for the level to fall by half in the phase considered) is 74.4 min. For the same molecule, in the data set “in vivo [1]” (iv, 5.14 mg/kg), the Tmax is 4.8 min and the clearance (usually the rate of elimination divided by the concentration) is 4.51 mL/min. Moreover, the exposure (AUC) (as a rule, the area under the concentration-time curve, a measure of exposure) in “in vivo [1]” (iv, 5.14 mg/kg, AUCall) was found to be 365 ng·h/mL. In the data set “in vivo [1]” (iv, AUCiv), this molecule returned an area under the curve (AUC) of 365 ng·h/mL. Besides, in “in vivo [2]”, the bioavailability (in general, dose-corrected exposure relative to a reference, in per cent) worked out at 15%. Also, in “in vivo [2]” (po), the AUC came to 214 ng·h/mL and the bioavailability turned out to be 15.1%. Also, in “in vivo [2]” (po, 20 mg/kg), the AUC(0-inf) (as a rule, the area under the concentration-time curve extrapolated to infinity) was 43.1 ng·h/mL; the peak level (Cmax) was 9.58 ng/mL; the Tmax stood at 30 min; the half-life was 284 min. For the same molecule, the “inhibition of pSTAT3” value in the data set on pSTAT3 was “strong inhibition”. For the same molecule, the “tumor killing effects / cytotoxicity” value in data set [4] is on record as “relatively strong tumor killing effects”. Further, in data set [4] (72 hours, CCK8, FIG. 5a-f), the “IC50 values among several cell lines” value is reported as “comparable”. In the data set on 786-O cell or A549 cell, the cell survival entry was “did not affect cell survival”; the cell morphology result is “remained attached, elongate, and did not exhibit abnormal morphology”. Also, in data set [6] (setting [7]), the blood glucose entry was “decreased”; the “levels of aspartate transaminase (AST) alanine aminotransferase (ALT) and cholinesterase (CHE)” value is given as “significantly elevated”; the “levels of lactate dehydrogenase (LDH), creatine kinase (CK) and creatine kinase-MB (CKMB)” value is reported as “elevated”; the “levels of urate and blood urea nitrogen” value is recorded as “increased”. In addition, in data set [6] (oral once a day for 14 days, 28 mg/kg and 70 mg/kg), the “effects on the body weights” value is “little effects”. Further, in data set [6] (setting [8]), the “average body weight reduce” value worked out at 17.6% and the “condition of the mice” value was “extremely weak”. In data set [6] (repeated test, oral once a day, 100 mg/kg), the “influence on body weight” value is on record as “body weights did not increase”. For the same molecule, in data set [6] (setting [9]), the “average body weight reduce” value was determined as 20% and the “condition of the mice” value is on record as “extremely weak”.
